Measurements published in US8680052B1, “Methods of treating, reducing the incidence of, and/or preventing ischemic events” (The Medicines Company, priority 2013, dated 2014).

System: platelets
Test: Example 4: light transmission aggregometry (LTA) induced by 5 and 20 μM ADP
Format: in vivo, human
Experimental: The study involved 12 patients who met the criteria of being 18-75 years of age, having coronary artery disease (CAD) documented by a previous MI or coronary revascularization, and taking 81 mg of aspirin daily. […] Prohibited concomitant medications included strong and potent CYP3A inhibitors, simvastatin and lovastatin at doses more than 40 mg/day, omeprazole or esomeprazole, and digoxin. Use of non-steroidal anti-inflammatory agents was discouraged during study participation but not prohibited.
Each patient was administered a 30 μg/kg bolus of cangrelor followed immediately by a 2 hr infusion at a rate of 4.0 μg/kg/min. A loading dose of ticagrelor (180 mg) was given after 0.5 hr or 1.25 hr (n=6 for each). Blood for pharmacodynamic platelet function studies was taken after 0.5 or 1.25 hr (corresponding to the time of ticagrelor load, n=6 for each), and then at 1.75, 2, 2.25, 2.5, 2.75, 3, 4, and 5.25 hr. Patients were assigned randomly to receive either 6 (n=6) or 7 (n=6) doses of ticagrelor to be taken every 12 hours following the discontinuation of the infusion of cangrelor. On study day 5, each patient was administered a 30 μg/kg bolus of cangrelor followed immediately by a 2 hr infusion at a rate of 4.0 μg/kg/min. Blood for pharmacodynamic assessment was taken after 1 and 2 hr. Adverse events were queried throughout study participation that ended with a telephone interview performed on study day 10-12.
Pharmacodynamic assessment included light transmission aggregometry (LTA), VerifyNow® P2Y12 assay, vasodilator-stimulated phosphoprotein (VASP) index, and platelet activation measured with the use of flow cytometry. Assessment of LTA, VerifyNow®, and platelet activation with the use of flow cytometry was performed within 30 min of blood being taken. In the case of flow cytometry, samples were processed to fixation and then batched for analysis. For VASP, index samples were batched and processed as recommended by the vendor within 2 h of blood being taken. This approach limited the time from fixation of VASP index to flow analysis to less than 1 h.
LTA induced by 5 μM and 20 μM adenosine diphosphate (ADP) was quantified ex vivo (i.e. in non-adjusted platelet rich plasma). Platelet-poor plasma was set as 100% aggregation, and both maximal (peak) and terminal (at 300 s) aggregation were measured with a PAP4 aggregometer (BioData, Horsham, Pa.). VerifyNow® P2Y12 assay (Accumetrics Inc, San Diego, Calif.) that measures the effects of drugs on the P2Y12 receptor by activating platelets with prostaglandin El in addition to ADP was used in accordance with the instructions provided by the manufacturer. Platelet reactivity was expressed in P2Y12 reaction units (PRU). Activation of platelets was identified with the use of flow cytometry as previously described.^17. And to determine the VASP index, a commercially available kit (Diagnostica Stago, Inc, Parsippany NJ) was used. ^17 Schneider D J, Sobel B E. Streamlining the design of promising clinical trials: in-vitro testing of antithrombotic regimens and multiple agonists of platelet activation. Coron Artery Dis. 2009; 20:175-8.

[1] = Study Day 1, 1.75 h, Ticagrelor at 0.5 hr
[2] = Study Day 1, 1.75 h, Ticagrelor at 1.25 hr
[3] = Study Day 1, 2.0 h, Ticagrelor at 0.5 hr
[4] = Study Day 1, 2.0 h, Ticagrelor at 1.25 hr
[5] = Study Day 1, reference 0.5/1.25 h, All
[6] = Study Day 1, reference 0.5/1.25 h, Ticagrelor at 0.5 hr
[7] = Study Day 1, reference 0.5/1.25 h, Ticagrelor at 1.25 hr
[8] = Study Day 5, 1.0 h, Ticagrelor 6 doses
[9] = Study Day 5, 1.0 h, Ticagrelor 7 doses
[10] = Study Day 5, 2.0 h, Ticagrelor 6 doses
[11] = Study Day 5, 2.0 h, Ticagrelor 7 doses

SMILES: CSCCNc1nc(SCCC(F)(F)F)nc2c1ncn2[C@@H]1O[C@H](COP(=O)(O)OP(=O)(O)C(Cl)(Cl)P(=O)(O)O)[C@@H](O)[C@H]1O [Cangrelor, cangrelor]
- IPA, 5 μM ADP, LTA (Study Day 1, 1.75 h, All): 92 ± 5%
- IPA, 20 μM ADP, LTA (Study Day 1, 1.75 h, All): 97 ± 2%
- PR, 5 μM ADP, LTA (Study Day 1, 1.75 h, All): 3.4 ± 2.2%
- PR, 20 μM ADP, LTA (Study Day 1, 1.75 h, All): 2.2 ± 1.4%
- IPA, 5 μM ADP, LTA [1]: 92 ± 5%
- IPA, 20 μM ADP, LTA [1]: 97 ± 2%
- PR, 5 μM ADP, LTA [1]: 4.2 ± 2.4%
- PR, 20 μM ADP, LTA [1]: 2.3 ± 1.0%
- IPA, 5 μM ADP, LTA [2]: 93 ± 6%
- IPA, 20 μM ADP, LTA [2]: 97 ± 3%
- PR, 5 μM ADP, LTA [2]: 2.7 ± 1.8%
- PR, 20 μM ADP, LTA [2]: 2 ± 1.8%
- IPA, 5 μM ADP, LTA (Study Day 1, 2.0 h, All): 92 ± 3%
- IPA, 20 μM ADP, LTA (Study Day 1, 2.0 h, All): 97 ± 3%
- PR, 5 μM ADP, LTA (Study Day 1, 2.0 h, All): 4.1 ± 2%
- PR, 20 μM ADP, LTA (Study Day 1, 2.0 h, All): 2.3 ± 2.2%
- IPA, 5 μM ADP, LTA [3]: 91 ± 3%
- IPA, 20 μM ADP, LTA [3]: 95 ± 2%
- PR, 5 μM ADP, LTA [3]: 4.8 ± 1.9%
- PR, 20 μM ADP, LTA [3]: 3.5 ± 1.9%
- IPA, 5 μM ADP, LTA [4]: 93 ± 3%
- IPA, 20 μM ADP, LTA [4]: 98 ± 3%
- PR, 5 μM ADP, LTA [4]: 3.3 ± 2%
- PR, 20 μM ADP, LTA [4]: 1.2 ± 1.9%
- IPA, 5 μM ADP, LTA [5]: 93 ± 3%
- IPA, 20 μM ADP, LTA [5]: 98 ± 2%
- PR, 5 μM ADP, LTA [5]: 3.6 ± 1.8%
- PR, 20 μM ADP, LTA [5]: 1.7 ± 1.7%
- IPA, 5 μM ADP, LTA [6]: 92 ± 4%
- IPA, 20 μM ADP, LTA [6]: 97 ± 2%
- PR, 5 μM ADP, LTA [6]: 4.2 ± 2.1%
- PR, 20 μM ADP, LTA [6]: 2 ± 1.5%
- IPA, 5 μM ADP, LTA [7]: 93 ± 2%
- IPA, 20 μM ADP, LTA [7]: 98 ± 3%
- PR, 5 μM ADP, LTA [7]: 3 ± 1.4%
- PR, 20 μM ADP, LTA [7]: 1.3 ± 2.0%
- IPA, 5 μM ADP, LTA (Study Day 5, 1.0 h, All): 96 ± 3%
- IPA, 20 μM ADP, LTA (Study Day 5, 1.0 h, All): 98 ± 2%
- PR, 5 μM ADP, LTA (Study Day 5, 1.0 h, All): 2.1 ± 1.7%
- PR, 20 μM ADP, LTA (Study Day 5, 1.0 h, All): 1.5 ± 1.5%
- IPA, 5 μM ADP, LTA [8]: 96 ± 4%
- IPA, 20 μM ADP, LTA [8]: 98 ± 2%
- PR, 5 μM ADP, LTA [8]: 1.5 ± 1.6%
- PR, 20 μM ADP, LTA [8]: 1.5 ± 1.6%
- IPA, 5 μM ADP, LTA [9]: 96 ± 3%
- IPA, 20 μM ADP, LTA [9]: 98 ± 2%
- PR, 5 μM ADP, LTA [9]: 2.7 ± 1.6%
- PR, 20 μM ADP, LTA [9]: 1.5 ± 1.5%
- IPA, 5 μM ADP, LTA (Study Day 5, 2.0 h, All): 96 ± 4%
- IPA, 20 μM ADP, LTA (Study Day 5, 2.0 h, All): 98 ± 2%
- PR, 5 μM ADP, LTA (Study Day 5, 2.0 h, All): 2.2 ± 2.2%
- PR, 20 μM ADP, LTA (Study Day 5, 2.0 h, All): 1.3 ± 1.6%
- IPA, 5 μM ADP, LTA [10]: 97 ± 3%
- IPA, 20 μM ADP, LTA [10]: 98 ± 1%
- PR, 5 μM ADP, LTA [10]: 1.5 ± 1.5%
- PR, 20 μM ADP, LTA [10]: 1.2 ± 1.5%
- IPA, 5 μM ADP, LTA [11]: 95 ± 5%
- IPA, 20 μM ADP, LTA [11]: 98 ± 3%
- PR, 5 μM ADP, LTA [11]: 2.8 ± 2.7%
- PR, 20 μM ADP, LTA [11]: 1.5 ± 1.9%
- residual reactivity, maximal (combined overall population, 0.5 h after cangrelor was stopped, ticagrelor loaded during infusion): 19%
- residual reactivity (combined overall population, end of observation period (5.25 h)): < 5%
